Measurements as given in the supplement of paper PMC8253809.

Tests used:
[1] = system: iAstro (astrocyte control); assay: EC50 (inflection of fitted growth-inhibition curve) (log10 M)
Method in brief: (§1)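 Compounds were delivered by pin tool as a 10-point threefold dilution series with a mean top concentration of 35 μM, in triplicate, to patient-derived pHGG/DIPG cell lines and astrocyte controls growing on 1% Geltrex-coated 384-well plates. Incubation lasted 7 days, or 3 days for iAstro, at 37 °C with 5% CO2. EC50 and maximal response (yFin) come from the three- or four-parameter log-logistic fit with the lowest AICc, applied to pooled, log2-transformed CellTiter-Glo luminescence normalised per plate to % activity between solvent (negative) and positive control wells.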

[2] = system: SUDIPGXXI (diffuse intrinsic pontine glioma line); assay: as above
Method in brief: as §1

[3] = system: SUDIPGXIX (diffuse intrinsic pontine glioma line); assay: as above
Method in brief: as §1

[4] = system: iAstro; assay: maximal growth inhibition (yFin) relative to DMSO / staurosporine; higher = more efficacious
Method in brief: as §1

[5] = system: SUDIPGXXI; assay: as above
Method in brief: as §1

[6] = system: SUDIPGXIX; assay: as above
Method in brief: as §1

[7] = system: HGGX39 (paediatric high-grade glioma line); assay: area under dose-response curve of % growth inhibition (log2 RLU vs DMSO / staurosporine), 1e-11 to 1e-4 M (% x log10 M); higher = more growth inhibition
Method in brief: (§2)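 Area under the curve was derived with the trapezoid rule from a fitted log-logistic curve, switching to a smoothing spline if the sigmoid fit failed. It rested on per-plate % activity between solvent and positive controls, calculated from log2-transformed CellTiter-Glo luminescence after 7 days of exposure (3 days for iAstro) at 37 °C, 5% CO2. Patient-derived pHGG/DIPG lines and astrocytes on 1% Geltrex-coated 384-well plates received a 10-point threefold dilution series, mean top concentration 35 μM, in triplicate.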

[8] = system: SUDIPGXIII (diffuse intrinsic pontine glioma line); assay: as above
Method in brief: as §2

[9] = system: SUDIPGIV (diffuse intrinsic pontine glioma line); assay: as above
Method in brief: as §2

[10] = system: iAstro; assay: as above
Method in brief: as §2

[11] = system: SUDIPGXXI; assay: as above
Method in brief: as §2

[12] = system: DIPGX37 (H3.3 K27M diffuse intrinsic pontine glioma line); assay: as above
Method in brief: as §2

[13] = system: HGGX2 (paediatric high-grade glioma line); assay: as above
Method in brief: as §2

[14] = system: SUDIPGVI (diffuse intrinsic pontine glioma line); assay: as above
Method in brief: as §2

[15] = system: DIPGX29 (H3.3 K27M diffuse intrinsic pontine glioma line); assay: as above
Method in brief: as §2

[16] = system: DIPGX7 (H3.3 K27M diffuse intrinsic pontine glioma line); assay: as above
Method in brief: as §2

[17] = system: HGGX42 (H3.3 G34R paediatric high-grade glioma line); assay: as above
Method in brief: as §2

[18] = system: HGGX6 (H3.3 G34R paediatric high-grade glioma line); assay: as above
Method in brief: as §2

[19] = system: SUDIPGXVII (diffuse intrinsic pontine glioma line); assay: as above
Method in brief: as §2

[20] = system: HABS (astrocyte control); assay: as above
Method in brief: as §2

[21] = system: DIPGX9 (diffuse intrinsic pontine glioma line); assay: as above
Method in brief: as §2

[22] = system: SUDIPGXIX; assay: as above
Method in brief: as §2

[23] = system: HGGX39; assay: EC50 (inflection of fitted growth-inhibition curve) (log10 M)
Method in brief: as §1

[24] = system: SUDIPGIV; assay: as above
Method in brief: as §1

[25] = system: HGGX39; assay: maximal growth inhibition (yFin) relative to DMSO / staurosporine; higher = more efficacious
Method in brief: as §1

[26] = system: SUDIPGIV; assay: as above
Method in brief: as §1

[27] = system: DIPGX29; assay: EC50 (inflection of fitted growth-inhibition curve) (log10 M)
Method in brief: as §1

[28] = system: DIPGX29; assay: maximal growth inhibition (yFin) relative to DMSO / staurosporine; higher = more efficacious
Method in brief: as §1

[29] = system: HGGX2; assay: EC50 (inflection of fitted growth-inhibition curve) (log10 M)
Method in brief: as §1

[30] = system: HGGX2; assay: maximal growth inhibition (yFin) relative to DMSO / staurosporine; higher = more efficacious
Method in brief: as §1

[31] = system: DIPGX9; assay: EC50 (inflection of fitted growth-inhibition curve) (log10 M)
Method in brief: as §1

[32] = system: DIPGX9; assay: maximal growth inhibition (yFin) relative to DMSO / staurosporine; higher = more efficacious
Method in brief: as §1

SMILES	EC50 (log10 M) [1]	EC50 (log10 M) [2]	EC50 (log10 M) [3]	maximal growth inhibition [4] [%]	maximal growth inhibition [5] [%]	maximal growth inhibition [6] [%]	area under dose-response curve [7]	area under dose-response curve [8]	area under dose-response curve [9]	area under dose-response curve [10]	area under dose-response curve [11]	area under dose-response curve [12]	area under dose-response curve [13]	area under dose-response curve [14]	area under dose-response curve [15]	area under dose-response curve [16]	area under dose-response curve [17]	area under dose-response curve [18]	area under dose-response curve [19]	area under dose-response curve [20]	area under dose-response curve [21]	area under dose-response curve [22]	EC50 (log10 M) [23]	EC50 (log10 M) [24]	maximal growth inhibition [25] [%]	maximal growth inhibition [26] [%]	EC50 (log10 M) [27]	maximal growth inhibition [28] [%]	EC50 (log10 M) [29]	maximal growth inhibition [30] [%]	EC50 (log10 M) [31]	maximal growth inhibition [32] [%]
COc1ccc(Cn2ccc3ccc(C(=O)NO)cc32)cc1	-4.67	-4.78	-4.78	47.6	117	31.4	10.3	30.1	6.64	47	91.2	30.6	14.8	2.84	24.9	20.3	25.8	5.76	7.72	11.9	19.1	24.5	–	–	–	–	–	–	–	–	–	–
N=C(N)c1ccc(N=NNc2ccc(C(=N)N)cc2)cc1 [BERENIL]	–	-5.13	–	–	46.9	–	84.7	14.9	43.8	1.3	53.1	90.7	0	15.1	41.8	20.8	0	52.7	13.8	0.995	5.74	0	-5.18	-5.18	68.7	38.7	–	–	–	–	–	–
CO[C@H]1C(=O)[C@]2(C)[C@@H](OC)C[C@H]3OC[C@@]3(OC(C)=O)[C@H]2[C@H](OC(=O)c2ccccc2)[C@]2(O)C[C@H](OC(=O)[C@H](O)[C@@H](NC(=O)OC(C)(C)C)c3ccccc3)C(C)=C1C2(C)C [CABAZITAXEL]	–	–	–	–	–	–	123	29.9	255	79.4	515	119	156	37.8	71.3	68.4	102	78.2	50.5	147	141	120	–	–	–	–	–	–	–	–	–	–
CC(C)[C@H]1C(=O)N[C@@H](CCCNC(=N)N)C(=O)NCC(=O)N[C@@H](CC(=O)O)C(=O)N[C@H](Cc2ccccc2)C(=O)N1C [CILENGITIDE]	–	–	–	–	–	–	4.22	0	4.77	0	1.67	4.08	8.33	0	10.1	15.6	11.4	2.93	4.38	3.86	8.99	0	–	–	–	–	–	–	–	–	–	–
CC(C)(C)c1nc(-c2cccc(NS(=O)(=O)c3c(F)cccc3F)c2F)c(-c2ccnc(N)n2)s1 [DABRAFENIB]	–	–	–	–	–	–	25.7	0.214	18.7	3.65	13.7	11.5	0	2.65	3.8	20.8	7.39	21.9	3.63	19.7	3.09	0	–	–	–	–	–	–	–	–	–	–
CCN(c1cc(-c2ccc(CN3CCOCC3)cc2)cc(C(=O)NCc2c(C)cc(C)[nH]c2=O)c1C)C1CCOCC1 [EPZ-6438]	–	–	–	–	–	–	1.99	2.24	9.17	5.32	6.79	0	0	0	4.38	5.15	0	0	4.66	12.9	0	0.349	–	–	–	–	–	–	–	–	–	–
CC12CC3CC(C)(C1)CC(N)(C3)C2 [MEMANTINE]	–	-4.68	–	–	32.5	–	0.964	0	6.14	0.365	21.5	1.76	2.91	0	3.62	13.8	0.942	2.25	1.91	2.39	1.54	1.83	–	–	–	–	–	–	–	–	–	–
N[C@H]1C[C@@H]1c1ccc(-c2cccc(O)c2)cc1 [OG-L002]	–	–	-6.55	–	–	87.2	78.2	0	174	35.4	7.31	78.6	81.6	3.43	67.6	138	100	51.3	103	7.06	24.4	222	–	–	–	–	–	–	–	–	–	–
O=C([C@@H](Cc1cccc(C(F)(F)F)c1)NS(=O)(=O)c1cc(F)c2c(c1)CCNC2)N1CCCC1 [PFI-2]	–	-4.58	–	–	24.8	–	4.9	1.68	4.77	6.82	14.4	0.851	6.57	8.26	14	4.47	0	5.68	3.09	5.29	0	0	–	–	–	–	-4.51	27.5	–	–	–	–
CCOC(=O)c1ccc(C#Cc2ccc3c(c2)C(C)(C)CCS3)nc1 [TAZAROTENE]	-4.78	-5.98	–	21.6	107	–	27.7	14.7	45.5	17	230	19.5	12.3	0	10.3	5.61	11.6	15.5	12.6	0	25.9	0	–	–	–	–	–	–	–	–	–	–
CC1=C(/C=C/C(C)=C/C=C/C(C)=C/C(=O)O)C(C)(C)CCC1 [TRETINON]	–	-7.13	–	–	94.3	–	42.5	0	44.1	14.6	296	46.7	71.1	22	40.4	16.1	28.5	27.5	19.9	0	97.5	14.9	–	–	–	–	–	–	-6.92	24.3	–	–
O=C(CCCCCCC(=O)Nc1ccc([C@H]2O[C@@H](CSc3nc(-c4ccccc4)c(-c4ccccc4)o3)C[C@@H](c3ccc(CO)cc3)O2)cc1)NO [TUBACIN]	-4.6	-4.84	–	29.5	51.8	–	4.96	0	0.838	17	43.2	3.94	3.24	1.17	8.41	22.1	0	0	1.78	4.17	5.5	8.78	–	–	–	–	–	–	–	–	–	–
CN1CCc2c(c3ccccc3n2Cc2ccc(C(=O)NO)cc2)C1 [TUBASTATIN A]	-4.7	-4.83	–	54	99.5	–	24.6	6.63	24.1	37.8	82.4	24.4	21.2	0	16.3	5.69	9.08	6.92	17.2	14.5	32.9	24.1	–	-4.8	–	30.1	–	–	–	–	-4.76	29.3
C[C@]1(c2nc3c(C(N)=O)cccc3[nH]2)CCCN1 [VELIPARIB]	–	-4.72	–	–	99.9	–	0	0	6.66	7.64	100	0	1.41	0	0	1.28	0	0	9.93	3.94	6.96	7.71	–	–	–	–	–	–	–	–	–	–
CS(=O)(=O)c1ccc(C(=O)Nc2ccc(Cl)c(-c3ccccn3)c2)c(Cl)c1 [VISMODEGIB]	–	-4.83	–	–	34.8	–	11.1	2.44	6.55	25.8	28.8	7.51	1.06	0	6.39	5.14	0.511	11.3	7.7	0	2.06	0	–	–	–	–	–	–	–	–	–	–
O=c1ncccn1[C@@H]1O[C@H](CO)[C@@H](O)[C@H]1O [ZEBULARINE]	–	–	–	–	–	–	2.92	32.2	12	6.4	15.3	19.9	20	13.2	5.5	17.7	15.7	2.58	7.86	4.92	11.6	5.55	–	–	–	–	–	–	–	–	–	–
